Patent US9949968B2, “Diarylalkylamine REV-ERB antagonists and their use as medicaments” (FONDAZIONE ISTITUTO ITALIANO DI TECNOLOGIA, priority 2013, dated 2018)
Structures can show the parent of a compound that is named as a salt. Values belong to the compound of their own block, whether it stands above or below them.

Assays:
LXRα = target: T1, LXRα (Homo sapiens, UniProt Q13133); conditions: Trump et al., J. Med. Chem., 2013; cited from earlier work
T1 sequence (Q13133 1-447): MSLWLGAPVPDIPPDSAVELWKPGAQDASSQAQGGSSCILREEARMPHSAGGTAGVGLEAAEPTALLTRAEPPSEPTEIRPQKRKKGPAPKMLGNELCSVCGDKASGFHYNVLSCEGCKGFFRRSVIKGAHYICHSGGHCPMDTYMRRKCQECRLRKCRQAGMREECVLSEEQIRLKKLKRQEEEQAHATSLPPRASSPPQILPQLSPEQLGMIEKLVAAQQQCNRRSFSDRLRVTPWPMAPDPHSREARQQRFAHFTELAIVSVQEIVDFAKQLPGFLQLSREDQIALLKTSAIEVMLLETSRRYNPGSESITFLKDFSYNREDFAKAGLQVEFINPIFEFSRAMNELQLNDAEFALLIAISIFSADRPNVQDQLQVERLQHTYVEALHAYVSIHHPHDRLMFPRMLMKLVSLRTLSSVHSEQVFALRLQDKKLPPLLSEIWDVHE

[1] = cited from earlier work; for metabolic clearance: in vivo, Solt et al., Nature, 2012; for pharmacokinetic properties: literature
REV-ERBα = target: T2, REV-ERBα (Homo sapiens, UniProt P20393); conditions: literature; cited from earlier work
T2 sequence (P20393 284-614 limits assumed): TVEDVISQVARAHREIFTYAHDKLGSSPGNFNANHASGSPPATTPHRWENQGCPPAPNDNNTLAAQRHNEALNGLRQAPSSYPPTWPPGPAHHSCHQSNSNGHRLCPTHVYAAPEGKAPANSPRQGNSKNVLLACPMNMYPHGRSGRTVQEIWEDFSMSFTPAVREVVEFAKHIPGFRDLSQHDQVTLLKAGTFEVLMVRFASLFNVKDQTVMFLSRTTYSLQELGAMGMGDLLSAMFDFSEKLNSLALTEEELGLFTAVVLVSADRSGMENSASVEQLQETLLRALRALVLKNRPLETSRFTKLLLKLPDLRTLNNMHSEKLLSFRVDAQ

Colo-205 = assay: Growth inhibition of different tumor cell lines: Colo-205; type: cell-based; conditions: Homo sapiens; Colo-205, colon, metastatic site: ascites, p53 mutant protein
Source text: (§1) The CyQUANT® Cell Proliferation Assay Kit (Invitrogen) was used, an assay that has a linear detection range extending from 50 or fewer to at least 250,000 cells.
(§2) Frozen cells are simply thawed and lysed by addition of a buffer containing the CyQUANT®.
(§3) Data were collected and analyzed with Prism 5 software to calculate the growth inhibition curve.
(§4) In particular, values obtained from the DMSO treated cells was set at 100% of growth. Data from treatment of cells with serial dilutions of the compounds were normalized versus the DMSO group and fitted using a four-parameter dose-response curve.
(§5) GI50 was calculated as the concentration of compound that gives a response half way between bottom and top plateaus of the fitted curve.
(§6) To test if the growth inhibition activity of the compound of example 1 was limited to breast cancer BT-474 cells, or if it could be generalized in other tumor cells from different tissues, the GI50 of compound of example 1 was tested in several cell lines.

CaCO2 = assay: Growth inhibition of different tumor cell lines: CaCO2; type: cell-based; conditions: Homo sapiens, Caco-2; CaCO2, colorectal adenocarcinoma, p53 no protein expression
Source text: as §1, §2, §3, §4, §5, §6

[2] = system: endogenous REV-ERB mediated transcription; assay: Gene expression analysis (qPCR) of endogenous REV-ERB target genes in BT-474 cells; type: cell-based; conditions: 24 h, different doses, qPCR normalised to Gapdh
Procedure: Gene Expression Analysis of Endogenous REV-ERB Target Genes after Treatment with the Compound of Example 1
In order to test the effect of the compound of example 1 on the endogenous REV-ERB mediated transcription, BT-474 cells were treated 24 h with different doses of the compound of the example 1 and then processed for RNA extraction.
Total RNA was extracted with Trizol reagent (Invitrogen) according to the manufacture instruction. One microgram of RNA was retro-transcribed with VILO retrotranscription mix (Invitrogen) and subsequently analyzed by qPCR as described in Grimaldi et al., Cell Metab., 2010; 12:509-520.
The REV-ERB targets Per1, Bmal1, Nampt, and p21 were analyzed. Gapdh gene was used to normalize the data, while Hprt1 gene was used as independent REV-ERB gene (negative control).
The results obtained are illustrated in FIG. 1 Values are presented as Relative expression, calculated versus the normalizing gene Gapdh, and shown as mean±SEM from at least 3 independent experiments. The expression of the REV-ERBs independent gene, Hprt1, was used as negative control.

HCT116 = assay: Growth inhibition of different tumor cell lines: HCT116; type: cell-based; conditions: Homo sapiens, HCT-116; HCT116, colorectal carcinoma, p53 Wild-Type
Source text: as §1, §2, §3, §4, §5, §6

REV-ERB = assay: Luciferase-based assay of REV-ERB mediated transcriptional regulation (RevRE/SV40-CLuc reporter in HEK-293 cells); type: cell-based; conditions: HEK-293 cells transfected with RevRE reporter and REV-ERBα and/or β; read 24 h post-transfection; read-out: REV-ERB antagonism EC50
Source text: Luciferase-Base Assay to Assess the Activity of the Compounds on REV-ERB Mediated Transcriptional Regulation
In order to assess the effect of the compounds of the invention on REV-ERB activity the inventors exploited the ability of REV-ERB to repress gene transcription of a specific DNA cis-element. In fact, the DNA binding domain (DBD) of REV-ERB recognizes specific DNA sequences (called RevREs=Rev-erb Responsive Elements) which contains an AGGTCA motif linked in 5′ to an A/T rich sequence harboring the following consensus: A/T A A/T N T (Harding et al., Mol Cell Biol., 1993; 13:3113).
Therefore, two repetitions of the RevRE consensus AGAATGTAGGTCA (SEQ ID NO: 13) upstream a SV40 promoter driving the expression of a reporter gene were cloned. As reported, the luciferase enzyme from the ostracod Cypridina noctiluca was adopted. […] Cypridina luciferase (CLuc) is secreted from cells by virtue of its natural signal peptide and its luminescence can be measured from the supernatant of transfected cells. Therefore, cell lysis is not necessary. Secreted CLuc is a very stable protein. Because of this property, the activity measured from the supernatant reflects the amount of protein accumulated up to the time of sampling. Multiple samples can therefore be obtained from the same transfected cells, allowing an easy set-up of time-course experiments. In addition, the direct use of the supernatant makes the system easily prone to automation for High Throughput Screening.
In order to normalize the experiment for the transfection efficiency, it was used a plasmid containing a SV40 promoter driving the expression of a secreted form of human alkaline phosphatase (SEAP), which enzymatic activity in the supernatant can be measured with chemiluminescence substrates.
To be able to rule out false-positive, for example due to the interference of the compounds to be tested with the fluorescence and/or chemiluminescence reactions, it was used as control a mutated version of the RevRE (GAGCCCGTAGGTCA) (SEQ ID NO: 14) that is no longer able to bind REV-ERB DBD (Harding et al., Mol Cell Biol., 1993; 13:3113).
The person skilled in the art will appreciate that an agonist will improve the ability of REV-ERB to repress the transcription, reducing the luminescence signal, while an antagonist will produce the opposite effect.
For the assay, HEK-293 cells were transfected with the reporter vectors and a plasmid expressing the REV-ERBα and/or β protein. After 6 h from transfection, the medium was replaced with fresh medium containing different doses of the compounds or vehicle (DMSO). After 24 h post-transfection, the supernatant was analyzed for the secreted luciferase and AP activity according to the manufacture instruction. Data normalized as fold activation versus vehicle (DMSO) were fitted using a four-parameter dose-response curve to calculate the EC50 of the different compounds.
(§7) The different compounds were tested for their ability to inhibit the growth of the tumorigenic breast cancer cells BT-474 and for their antagonistic activity toward REV-ERB transcriptional repression, as described in the biological method section.
For the cell growth inhibition (GI) the growth inhibition 50 (GI50) and the growth inhibition max (GImax) are reported. […] The bottom plateaus of the curve was used to calculate the Growth Inhibition max (GImax), defined as the percentage of the reduction of cells after 48 h upon a saturating dose of the administered compound. Compounds with a GI50<100 μM were also tested for their antagonistic activity toward REV-ERB. […]

SK-Hep1 = assay: Growth inhibition of different tumor cell lines: SK-Hep1; type: cell-based; conditions: Homo sapiens; SK-Hep1, liver adenocarcinoma, p53 Wild-Type
Source text: as §1, §2, §3, §4, §5, §6

HuH7 = assay: Growth inhibition of different tumor cell lines: HuH7; type: cell-based; conditions: Homo sapiens, Huh-7; HuH7, liver hepatocellular carcinoma, p53 mutant protein
Source text: as §1, §2, §3, §4, §5, §6

HCT116-E6 = assay: Growth inhibition of different tumor cell lines: HCT116-E6; type: cell-based; conditions: HCT116-E6, colorectal carcinoma, p53 no protein expression
Source text: as §1, §2, §3, §4, §5, §6

[3] = system: tumorigenic breast cancer cells BT-474; assay: Growth inhibition assay (CyQUANT Cell Proliferation Assay) in BT-474 cells; type: cell-based; conditions: Homo sapiens; for GI50: 48 h, CyQUANT, read-out: Cell Growth Inibition GI50; for Emax: reduction of cells after 48 h at saturating dose, read-out: Cell Growth Inibition GImax
Source text: Given that REV-ERB target genes include several metabolic regulators, such as Pgc-1α and Nampt, it was decided to test the cell proliferation with a method that is independent from the metabolic state of the cell.
as §1, §2
For the assay, tumorigenic breast cancer cells BT-474 cells were seeded at 2500 cells per well in a 96-well plate and incubated over-night at 37° C. Then, fresh medium containing different concentration of the compounds or vehicle (DMSO) was added and cells were growth 48 h at 37° C. Finally, cells were frozen at […] and then processed according to the manufacture instructions. A minimum of triplicate data for each dose was used for the analysis.
as §3, §4, §5
The bottom plateaus of the fitted curve was used to calculate the Growth Inhibition max (GImax), defined as the percentage of the reduction of cells after 48 h upon a saturating dose of compound.
as §7
For the cell growth inhibition (GI) the growth inhibition 50 (GI50) and the growth inhibition max (GImax) are reported. […] The bottom plateaus of the curve was used to calculate the Growth Inhibition max (GImax), defined as the percentage of the reduction of cells after 48 h upon a saturating dose of the administered compound. Compounds with a GI50<100 μM were also tested for their antagonistic activity toward REV-ERB. For these compounds, the EC50 value is provided, calculated as the concentration of compound that gives a response half between the bottom (expression of the reporter in absence of compound) and the top (expression of the reporter at saturating doses of compound) plateaus of the fitted curves (see biological method section for a description of the reported assay). n.d.=not determined; n.t.=not tested.

HepG2 = assay: Growth inhibition of different tumor cell lines: HepG2; type: cell-based; conditions: Homo sapiens; HepG2, liver hepatocellular carcinoma, p53 Wild-Type
Source text: as §1, §2, §3, §4, §5, §6

WiDr = assay: Growth inhibition of different tumor cell lines: WiDr; type: cell-based; conditions: Homo sapiens, colon adenocarcinoma, p53 mutant protein
Source text: as §1, §2, §3, §4, §5, §6

Hep3B = assay: Growth inhibition of different tumor cell lines: Hep3B; type: cell-based; conditions: Homo sapiens, liver hepatocellular carcinoma, p53 no protein expression
Source text: as §1, §2, §3, §4, §5, §6

Structure (SMILES): CCOC(=O)N1CCC(CN(Cc2ccc(Cl)cc2)Cc2ccc([N+](=O)[O-])s2)C1 (centres unmarked) [SR9009]
times more active toward LXRα than REV-ERBs (LXRα): 100 times
metabolic clearance [1]: high metabolic clearance rates

Structure (SMILES): CCOC(=O)C1Cc2ccccc2CN1C(=O)c1ccc(SC)s1 (centres unmarked) [SR8278]
pharmacokinetic properties [1]: poor pharmacokinetic properties
effect on interaction of NCoR peptide with REV-ERBα (FRET) (REV-ERBα): inhibit REV-ERBα LBD/NcoR interaction

Structure (SMILES): CCCCCNC(=O)N1CCC(CN(Cc2ccc(Cl)cc2)Cc2ccc([N+](=O)[O-])s2)C1 (centres unmarked) [SR9011]
times more active toward LXRα than REV-ERBs (LXRα): 100 times
metabolic clearance [1]: high metabolic clearance rates

Structure (SMILES): CN1CCN(Cc2cc(CNC3(c4ccccc4F)CCCC3)ccc2O)CC1 [Example 1, 4-[[[1-(2-Fluorophenyl)cyclopentyl]amino]methyl]-2-[(4-methylpiperazin-1-yl)methyl]phenol trihydrochloride]
GI50 (Colo-205): 30 µM
GI50 (CaCO2): 18 µM
expression of Bmal1 (REV-ERB target, circadian regulation) [2]: induced in a dose-dependent manner
expression of Nampt (REV-ERB target, metabolism) [2]: induced in a dose-dependent manner
expression of Per1 (REV-ERB target, circadian regulation) [2]: induced in a dose-dependent manner
expression of p21 (REV-ERB target, cell cycle) [2]: induced in a dose-dependent manner
expression of the REV-ERB independent gene Hprt1 (negative control) [2]: negligible effects
GI50 (HCT116): 19 µM
EC50 (REV-ERB): 25 µM
GI50 (SK-Hep1): 50 µM
GI50 (HuH7): 8 µM
GI50 (HCT116-E6): 20 µM
GI50 [3]: 18 µM
Emax [3]: 72%
GI50 (HepG2): 10 µM
GI50 (WiDr): 12 µM
GI50 (Hep3B): 10 µM

Structure (SMILES): CC(C)(C)OC(=O)CN(Cc1ccc(Cl)cc1)Cc1ccc([N+](=O)[O-])s1 [GSK4112]
activity on LXRα (LXRα): agonizes
pharmacokinetic properties [1]: poor pharmacokinetic properties
effect on interaction of NCoR peptide with REV-ERBα (FRET) (REV-ERBα): dose-dependently increase the interaction

EC50 (REV-ERB): 10 µM
GI50 [3]: 10 µM
Structure (SMILES): CN1CCN(Cc2cc(CNC3(c4ccc(F)cc4)CCCC3)ccc2O)CC1 [Example 23, 4-[[[1-(4-Fluorophenyl)cyclopentyl]amino]methyl]-2-[(4-methylpiperazin-1-yl)methyl]phenol trihydrochloride]
Emax [3]: 90%

EC50 (REV-ERB): 25 µM
GI50 [3]: 15 µM
Structure (SMILES): CCN1CCN(Cc2cc(CNC3(c4ccccc4F)CCCC3)ccc2O)CC1 [Example 10, 2-[(4-Ethylpiperazin-1-yl)methyl]-4-[[[1-(2-fluorophenyl)cyclopentyl]amino]-methyl]phenol trihydrochloride]
Emax [3]: 70%
